Assay results published in patent US20180085381A1, “Adjunctive Therapy With 25-Hydroxyvitamin D” (priority 2014, published 2018).
Each block holds one compound with its values, some of them ahead of it.

What was measured:
[1] = system: adult patients diagnosed with metastases in bone originating from breast or prostate cancer; experiment: Efficacy study in patients with metastatic bone disease receiving an antiresorptive agent (6-month, placebo-controlled); assay type: in vivo, human
Description: Denosumab or zoledronic acid are administered according to the typical standard of care for each patient's condition. […] Samples are collected at monthly intervals for monitoring serum and urine levels of calcium, plasma levels of PTH and serum total 25-hydroxyvitamin D. Serum markers of tumor burden and bone metabolism, as well as cancer progression are assessed at 3-month intervals.

[2] = system: adult male patients with bone-metastasized castration-resistant prostate cancer; experiment: Efficacy study in prostate cancer patients treated with denosumab; conditions: for incidence of hypocalcemia and severity of SHPT and hypercalcemia: once stable dosing has been achieved, denosumab-treated
Description: In a randomized, double-blind controlled study, patients are treated with denosumab (120 mg every four weeks). All denosumab-treated patients are randomized to receive daily oral treatment with one softgel capsule containing either 30 mcg of 25-hydroxyvitamin D3 in a modified release formulation or 400 IU of Vitamin D3 in an immediate release formulation. A total of 500 subjects participate in this study, all of whom are aged 18 years or older with histologically confirmed prostate cancer. […] All patients receive a radioisotope bone scan during screening with subsequent imaging by CT, MRI, or plain radiograph if needed to confirm bone metastases. All subjects receive calcium supplements (500 mg/day) and abstain from taking other Vitamin D supplements for 60 days before study start and continuing through study termination, and from significant sun exposure.
All subjects begin daily dosing with softgel capsules at the start of denosumab treatment. Serum total 25-hydroxyvitamin D, PTH, calcium, phosphorus, N- and C-telopeptides, and P1NP, and urinary calcium, phosphorus and creatinine, are measured monthly. Radiographic bone scans are conducted every 6 months to detect skeletal metastases, with a second imaging modality (CT, MRI, or plain radiograph) used to confirm diagnosis of any metastases detected. Bone mineral density at four sites (total hip, femoral neck, ⅓ radius and lumbar spine) is determined at the start of the study and thereafter at yearly intervals. After 3 months, the daily dosage of 25-hydroxyvitamin D3 capsules is maintained unchanged in patients whose serum total 25-hydroxyvitamin D is between 50 and 90 ng/mL, and increased by one 30 mcg capsule in patients whose serum total 25-hydroxyvitamin D is below 50 ng/mL.

[3] = system: adult male and female patients with osteoporosis; experiment: Efficacy study in osteoporosis patients treated with an antiresorptive agent (denosumab); assay type: in vivo, human; conditions: for incidence of hypocalcemia and severity of secondary hyperparathyroidism: once stable dosing has been achieved, denosumab-treated
[4] = system: adult female patients with breast cancer; experiment: Efficacy study in breast cancer patients treated with denosumab; assay type: in vivo, human; conditions: for incidence of hypocalcemia and severity of secondary hyperparathyroidism: once stable dosing has been achieved, denosumab-treated
[5] = system: castration-resistant prostate cancer or estrogen-independent breast cancer metastatic to bone; experiment: Efficacy study in patients with metastatic bone disease for prevention of SREs (24-month, placebo-controlled); assay type: in vivo, human
Description: Denosumab or zoledronic acid are administered according to the typical standard of care for each patient's condition. Patients are monitored for SREs, including by appropriate non-invasive imaging techniques, and serum markers of tumor burden and bone metabolism at 3-month intervals, and at monthly intervals for serum and urine calcium levels and plasma PTH. Cancer progression is monitored at quarterly intervals.

[6] = system: adult patients diagnosed with metastases in bone originating from breast or prostate cancer; assay type: in vivo, human
Description: At the start of the study, all patients have plasma PTH greater than 70 pg/mL as evidence of SHPT, serum calcium less than 9.8 mg/dL, spot urine Ca:Cr ratio≦0.25 (≦250 mg/g creatinine) and an estimated glomerular filtration rate greater than 15 mL/min/1.73 m^2. […] Denosumab or zoledronic acid are administered according to the typical standard of care for each patient's condition.
The 52-week study consists of a 40 week dose escalation phase followed by a 12-week maintenance phase. At the end of the maintenance phase, there is a two-week follow up phase. At the start of the study, all patients receive an initial daily dose of 30 mcg 25-hydroxyvitamin D3, which is increased at four-week intervals over the course of the dose escalation phase up to a maximum daily dose of 300 mcg. The daily dose achieved by the end of the dose escalation study is the daily dose administered during the maintenance phase.
Blood samples are collected at 2-week intervals for monitoring serum levels of calcium and phosphorus. Samples are collected at 4-week intervals for monitoring plasma levels of PTH and PTHrP and serum total 25-hydroxyvitamin D, 24,25-dihydroxyvitamin D3, calcitriol, and free and total calcifediol. Serum vitamin D metabolites and markers of bone metabolism, immune function, and tumor burden are measured at the beginning of the dose escalation phase and at the beginning and end of the maintenance phase. Urine samples are collected at 4-week intervals for monitoring the Ca/Cr ratio and urine chemistry. The genotype of vitamin D binding protein is determined for each subject at the beginning of the dose escalation phase.

[7] = system: patients with bone metastases; conditions: patients with bone metastases treated with zoledronic acid; cited from earlier work
[8] = 6 months, with denosumab or zoledronic acid, compared to placebo
[9] = with denosumab or zoledronic acid, compared to placebo combination
[10] = with denosumab, 24 months, compared to denosumab and Vitamin D3
[11] = with denosumab, versus denosumab and vitamin D3
[12] = 24 months, with denosumab or zoledronic acid, compared to placebo

serum levels of 25-hydroxyvitamin D3 after 24 months [2, 11]: higher and more consistent
serum levels of 25-hydroxyvitamin D3 after 24 months ([3]; human, in vivo): higher and more consistent
serum levels of 25-hydroxyvitamin D3 after 24 months ([4]; human, in vivo): higher and more consistent
change in serum 1,25-dihydroxyvitamin D ([6]; human, in vivo): significant increases
change in serum 24,25-dihydroxyvitamin D ([6]; human, in vivo): significant increases
change in serum total 25-hydroxyvitamin D ([6]; human, in vivo): significant increases
serum calcium in the dose escalation phase ([6]; human, in vivo): gradually rises
SMILES: C=C1CC[C@H](O)C/C1=C/C=C1\CCC[C@]2(C)[C@@H]([C@H](C)CCCC(C)(C)O)CC[C@@H]12 [25-hydroxyvitamin D3]
plasma PTH [1, 8]: decrease
risk of hypocalcemia [1, 8]: reduced risk
serum calcium [1, 8]: greater increase
side effects related to calcium and PTH metabolism ([1]; modified release formulation): without causing unacceptable side effects
cancer progression ([1]; modified release formulation, 6 months): delaying cancer progression
time to additional bone metastasis [1, 9]: increased delay
side effects related to calcium and PTH metabolism ([2]; modified release formulation, with denosumab): without causing unacceptable side effects
incidence of hypocalcemia and severity of SHPT and hypercalcemia [2]: markedly reduced
incidence of hypocalcemia [2, 10]: significantly lower incidence
increases in bone mineral density [2, 10]: larger increases
plasma PTH levels [2, 10]: reduced
time to first post-treatment SRE [2, 10]: significantly delayed
serum PTH levels after 24 months [2, 11]: lower
side effects related to calcium and PTH metabolism ([3]; human, in vivo): without causing unacceptable side effects
incidence of hypocalcemia and severity of secondary hyperparathyroidism [3]: markedly reduced
increases in bone mineral density ([3]; with denosumab, 24 months, versus denosumab and Vitamin D3): larger increases
serum PTH levels after 24 months [3, 11]: lower
side effects related to calcium and PTH metabolism ([4]; human, in vivo): without causing unacceptable side effects
incidence of hypocalcemia and severity of secondary hyperparathyroidism [4]: markedly reduced
incidence of hypocalcemia [4, 10]: significantly lower incidence
increases in bone mineral density [4, 10]: larger increases
time to additional bone metastasis [4, 10]: significantly delayed
serum PTH levels after 24 months [4, 11]: lower
plasma PTH [5, 12]: decrease
risk of hypocalcemia [5, 12]: reduced risk
serum calcium [5, 12]: greater increase
observed time to a post-treatment SRE ([5]; compared to placebo): significantly increasing
tumor progression ([5]; compared to placebo): inhibiting tumor progression
time to additional bone metastasis or SRE [5, 9]: increased delay
plasma PTH in the dose escalation phase ([6]; 30 to 300 mcg daily, raised at four-week intervals, with denosumab or zoledronic acid): decreases

SMILES: C=C1CC[C@H](O)C/C1=C/C=C1\CCC[C@]2(C)[C@@H]([C@H](C)CCCC(C)C)CC[C@@H]12 [Vitamin D3, cholecalciferol, reference compound]
incidence of hypocalcemia and severity of SHPT and hypercalcemia [2]: more frequently
incidence of hypocalcemia and severity of secondary hyperparathyroidism [3]: occur more frequently
incidence of hypocalcemia and severity of secondary hyperparathyroidism [4]: occur more frequently

SMILES: O=P(O)(O)C(O)(Cn1ccnc1)P(=O)(O)O [zoledronic acid]
patients who developed hypocalcemia [7]: 39%
